Assay results published in PubChem BioAssay (NCI).
Several values for one entry are separate records, joined by “and”; a condition that tells them apart may be missing. Equal values may be shown once.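 A five-concentration, 48-hour dose response in 96-well plates underlies each endpoint, interpolated linearly between surrounding concentrations. Abbreviation: GI50, concentration required for 50% inhibition of growth. At the TGI there is no net growth.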

Key:
Assay in all cases: inhibition of tumour cell growth, NCI panel, 48 h
[1] = tested on: CCRF-CEM leukemia
[2] = tested on: ACHN renal
[3] = tested on: MCF7 breast
[4] = tested on: HL-60(TB) leukemia
[5] = tested on: SR leukemia
[6] = tested on: HCT-15 colon
[7] = tested on: OVCAR-8 ovarian
[8] = tested on: LOX IMVI melanoma
[9] = tested on: A498 renal
[10] = tested on: MDA-MB-435

`Nc1ncc(-c2ccc3ncnc(Nc4cccc(Cl)c4)c3c2)cn1` was tested, and the GI50 [1] was 1.85 µM, the TGI [1] was over 100 µM and the GI50 [2] was 0.0232 µM. It also gave a GI50 [3] of 0.186 µM, a GI50 [4] of 0.525 µM and a GI50 [5] of 0.268 µM. For the same compound, the GI50 [6] was 0.217 µM and 1.57 µM, the TGI [6] was over 100 µM and the GI50 [7] was 2.87 µM. The TGI [7] was over 100 µM.

Compound `CC(=O)OC12C(C)=C(C)C(=O)N1c1ccccc1N2C(C)=O` (stereo not drawn) has a TGI [1] of over 100 µM, a TGI [2] of over 100 µM and a TGI [4] of over 100 µM. For the same compound, the TGI [5] was over 100 µM, the TGI [6] was over 100 µM and the TGI [7] was over 100 µM. It also gave a TGI [8] of over 100 µM.

`CC(=O)OCc1c(O)c2c([nH]c1=O)CCc1ccccc1-2` gave a TGI [1] of 297 µM, a TGI [2] of over 350 µM and a TGI [4] of 210 µM. For the same compound, the TGI [5] was over 350 µM, the TGI [6] was 112 µM and the TGI [7] was 291 µM. For the same compound, the TGI [8] was 131 µM.

`Nc1nc(=O)n(C2CCC(CO)O2)cc1F` (stereo not drawn) was tested, and the TGI [1] was over 100 µM, the TGI [2] was over 100 µM and the TGI [4] was over 100 µM. For the same compound, the TGI [6] was over 100 µM, the TGI [7] was over 100 µM and the TGI [8] was over 100 µM.

In the case of `O=C1CCCCCCC2=C1C(Sc1ccccc1)CC2` (stereo not drawn), the TGI [1] is reported as 67.8 µM, the TGI [2] is reported as over 100 µM and the TGI [4] is reported as 36.2 µM. The TGI [5] was 79.3 µM, the TGI [6] was over 100 µM and the TGI [7] was 54 µM. The TGI [8] was 30.7 µM.

`COc1ccc(NC(=O)Oc2ccc3c(C)cc(=O)oc3c2)c(OC)c1` (tested in a mixture with another compound) was tested, and the TGI [9] was 86.1 µM, the TGI [2] was over 100 µM and the TGI [6] was over 100 µM. The TGI [7] was over 100 µM and the TGI [10] was over 100 µM.

Work on `Cc1ccc(S(=O)(=O)ON2C(=O)c3cccc4cc([N+](=O)[O-])cc(c34)C2=O)cc1` yielded a TGI [2] of over 100 µM, a TGI [3] of over 100 µM and a TGI [5] of over 100 µM. For the same compound, the TGI [6] was over 100 µM, the TGI [7] was over 100 µM and the TGI [10] was over 100 µM. For the same compound, the TGI [8] was over 100 µM.

`O=C(O)/C=C/c1ccc(Oc2ccccc2C(=O)O)o1` gave a TGI [1] of over 10 µM, a TGI [2] of over 10 µM and a TGI [3] of over 10 µM. The TGI [4] was over 10 µM, the TGI [5] was over 10 µM and the TGI [6] was over 10 µM. For the same compound, the TGI [7] was over 10 µM, the TGI [10] was over 10 µM and the TGI [8] was over 10 µM.

In the case of `COC(=O)/C=C1/SC(=Nc2cccc(Cl)c2)N(CCc2c[nH]c3ccc(O)cc23)C1=O`, the GI50 [1] is reported as 0.931 µM, the TGI [1] is reported as 5.27 µM and the GI50 [2] is reported as 1.73 µM. It also gave a TGI [2] of 3.33 µM, a GI50 [3] of 1.69 µM and a TGI [3] of 4.73 µM. The GI50 [4] was 1.79 µM, the TGI [4] was 6.09 µM and the GI50 [5] was 0.522 µM. The TGI [5] was 7.13 µM, the GI50 [6] was 1.5 µM and the TGI [6] was 3.32 µM. It also gave a GI50 [7] of 2.32 µM, a TGI [7] of 6.72 µM and a GI50 [10] of 1.68 µM. It also gave a TGI [10] of 3.96 µM, a GI50 [8] of 1.52 µM and a TGI [8] of 2.98 µM.

Work on `CC(Oc1ccc2c(-c3ccc(Cl)cc3)cc(=O)oc2c1)C(=O)O` (stereo not drawn) yielded a TGI [9] of over 100 µM, a TGI [1] of over 100 µM and a TGI [2] of over 100 µM. For the same compound, the TGI [4] was over 100 µM, the TGI [5] was over 100 µM and the TGI [7] was over 100 µM. It also gave a TGI [8] of over 100 µM.

In the case of `COc1ccc(N2C(=O)C3CC(c4ccc(Br)cc4)c4c([nH]c5ccccc45)C3C2=O)cc1` (stereo not drawn), the TGI [9] is reported as 22.3 µM, the TGI [1] is reported as over 100 µM and the TGI [2] is reported as 15.4 µM. It also gave a TGI [4] of over 100 µM, a TGI [6] of over 100 µM and a TGI [7] of 5.96 µM. The TGI [8] was 16.3 µM.

In the case of `CCC[CH2][Sn](=[O])[CH2]CCC`, the GI50 [1] is reported as over 50 µM, the TGI [1] is reported as over 50 µM and the GI50 [2] is reported as over 50 µM. For the same compound, the TGI [2] was over 50 µM, the GI50 [4] was over 36.2 µM and the TGI [4] was over 50 µM. The GI50 [5] was over 50 µM, the TGI [5] was over 50 µM and the GI50 [6] was over 50 µM. For the same compound, the TGI [6] was over 50 µM, the GI50 [7] was over 50 µM and the TGI [7] was over 50 µM. For the same compound, the GI50 [8] was over 50 µM and the TGI [8] was over 50 µM.

Work on `O=C1c2ccccc2C(=O)N1CCc1ncc(-c2ccccc2)[nH]1` yielded a TGI [9] of over 100 µM, a TGI [1] of over 100 µM and a TGI [2] of over 100 µM. For the same compound, the TGI [3] was over 100 µM, the TGI [4] was over 100 µM and the TGI [5] was over 100 µM. It also gave a TGI [6] of over 100 µM and a TGI [7] of over 100 µM.

For `C[C@@H]1C[C@H](N)C[C@H](c2ccncc2NC(=O)c2ccc(F)c(-c3c(F)cccc3F)n2)C1`, the GI50 [9] was 11.6 µM and 4.53 µM, the TGI [9] was 24.8 µM and > 10 µM and the GI50 [2] was 12.1 µM and > 10 µM. For the same compound, the TGI [2] was 24.5 µM and > 10 µM, the GI50 [3] was 10.8 µM and > 10 µM and the TGI [3] was 25 µM and > 10 µM. The GI50 [4] was 2.73 µM and 1.48 µM, the TGI [4] was 12.1 µM and > 10 µM and the GI50 [6] was 11.6 µM and > 10 µM. The TGI [6] was 25.7 µM and > 10 µM, the GI50 [7] was 17.1 µM and > 10 µM and the TGI [7] was 32.8 µM and > 10 µM. For the same compound, the GI50 [10] was 10.4 µM and 9.19 µM, the TGI [10] was 22.1 µM and > 10 µM and the GI50 [8] was 10.6 µM and > 10 µM. For the same compound, the TGI [8] was 23.3 µM and > 10 µM.

`CCCCN(CC)C(=O)C(=O)Cc1nc2ccc(C(=O)c3ccccc3)cc2[nH]c1=O` showed a TGI [9] of over 100 µM, a TGI [1] of over 31.6 µM and a TGI [2] of over 100 µM. For the same compound, the TGI [4] was over 31.6 µM, the TGI [5] was over 31.6 µM and the TGI [6] was over 100 µM. The TGI [7] was over 100 µM and the TGI [8] was over 100 µM.

For `CC(C)(C)C1=CC(=N/N=c2\scc(-c3ccccc3)n2-c2ccccc2)C=C(C(C)(C)C)C1=O`, the TGI [9] was over 100 µM, the TGI [1] was over 100 µM and the TGI [2] was over 100 µM. It also gave a TGI [4] of over 100 µM, a TGI [5] of over 100 µM and a TGI [6] of over 100 µM. The TGI [7] was over 100 µM and the TGI [8] was over 100 µM.

`O=S1(=O)c2ccccc2N(O)C2=NCCN21` was tested, and the TGI [9] was over 100 µM, the TGI [1] was over 100 µM and the TGI [2] was over 100 µM. It also gave a TGI [4] of over 100 µM, a TGI [5] of over 100 µM and a TGI [7] of over 100 µM. The TGI [8] was over 100 µM.

`C(=N\Nc1ncc(-c2cc3cc4c(cc3o2)OCO4)s1)/c1ccco1` gave a GI50 [1] of 0.551 µM, a TGI [1] of 16.2 µM and a GI50 [2] of 1.85 µM. For the same compound, the TGI [2] was 11.3 µM, the GI50 [3] was 0.683 µM and the TGI [3] was 7.18 µM. It also gave a GI50 [4] of 2.7 µM, a TGI [4] of 7.59 µM and a GI50 [5] of 1.29 µM. It also gave a TGI [5] of 25.3 µM, a GI50 [7] of 2.8 µM and a TGI [7] of over 100 µM. It also gave a GI50 [10] of 2.86 µM, a TGI [10] of 10.2 µM and a GI50 [8] of 1.35 µM. It also gave a TGI [8] of 2.76 µM.

With `CC1=C([Te]c2ccccc2)C(=O)c2ccccc2C1=O` the GI50 [9] was 0.239 µM, the TGI [9] was 0.977 µM and the GI50 [1] was 0.312 µM. It also gave a TGI [1] of 3.3 µM, a GI50 [2] of 0.454 µM and a TGI [2] of 1.61 µM. It also gave a GI50 [3] of 0.249 µM, a TGI [3] of 0.943 µM and a GI50 [4] of 0.326 µM. It also gave a TGI [4] of 1.54 µM, a GI50 [6] of 0.346 µM and a TGI [6] of 1.56 µM. For the same compound, the GI50 [7] was 0.374 µM, the TGI [7] was 4.35 µM and the GI50 [10] was 1.8 µM. The TGI [10] was 4.02 µM, the GI50 [8] was 0.311 µM and the TGI [8] was 1.49 µM.

Compound `CCOC(=O)c1[nH]c2cc(Cl)ccc2c1[C@@H](C(=O)NC(C)(C)C)N(CC)C(=O)CCCCC#Cc1cccc2c1CN(C1CCC(=O)NC1=O)C2=O` (stereo partly drawn) has a GI50 [9] of under 0.0104 µM, a TGI [9] of 0.0723 µM and a GI50 [1] of under 0.01 µM. For the same compound, the TGI [1] was over 100 µM, the GI50 [2] was 1.42 µM and the TGI [2] was 13.3 µM. The GI50 [3] was 0.117 µM, the TGI [3] was over 100 µM and the GI50 [4] was under 0.01 µM. It also gave a TGI [4] of 0.0959 µM, a GI50 [6] of 0.048 µM and a TGI [6] of over 33.2 µM. It also gave a GI50 [7] of under 0.01 µM, a TGI [7] of 35 µM and a GI50 [10] of 2.34 µM. For the same compound, the TGI [10] was over 31.7 µM, the GI50 [8] was 3.18 µM and the TGI [8] was over 86.5 µM.
